Assay results: the supplement of paper PMC8967900

Assays:
Test in all cases: selective drug sensitivity score (sDSS, relative to normal bone marrow) (sDSS (score)); higher = more potent and effective on the cell line relative to normal bone marrow cells
Details in all cases: 72 h
SUP-B15 = tested on: SUP-B15
COG-LL-317 = tested on: COG-LL-317
NALM-16 = tested on: NALM-16
JURKAT = tested on: JURKAT
MHH-CALL-4 = tested on: MHH-CALL-4
MHH-CALL-3 = tested on: MHH-CALL-3
DND-41 = tested on: DND-41
CCRF-HSB2 = tested on: CCRF-HSB2
KARPAS-45 = tested on: KARPAS-45
COG-LL-355h = tested on: COG-LL-355h
MN-60 = tested on: MN-60
HPB-ALL = tested on: HPB-ALL
COG-LL-319h = tested on: COG-LL-319h
COG-LL-402h = tested on: COG-LL-402h
ALL-SIL = tested on: ALL-SIL
KASUMI-2 = tested on: KASUMI-2
697 = tested on: 697
380 = tested on: 380
MOLT-4 = tested on: MOLT-4
TANOUE = tested on: TANOUE
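Also: ALL cell lines in 384-well plates, five doses spanning 10,000-fold, each plate scaled between vehicle and 100 µmol/L benzalkonium chloride controls, sDSS an adapted area-under-curve metric.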

O=C(Nc1nc2cccc(-c3ccc(CN4CCS(=O)(=O)CC4)cc3)n2n1)C1CC1 [Filgotinib] (top concentration 10000 nM)
selective drug sensitivity score (SUP-B15): -0.64 | selective drug sensitivity score (COG-LL-317): 1.16 | selective drug sensitivity score (NALM-16): -5.34 | selective drug sensitivity score (JURKAT): -1.34 | selective drug sensitivity score (MHH-CALL-4): 2.86 | selective drug sensitivity score (MHH-CALL-3): 1.26 | selective drug sensitivity score (DND-41): 1.66 | selective drug sensitivity score (CCRF-HSB2): -2.54 | selective drug sensitivity score (KARPAS-45): -1.04 | selective drug sensitivity score (COG-LL-355h): 0.96 | selective drug sensitivity score (MN-60): -2.64 | selective drug sensitivity score (HPB-ALL): -1.34 | selective drug sensitivity score (COG-LL-319h): -3.74 | selective drug sensitivity score (COG-LL-402h): -1.54 | selective drug sensitivity score (ALL-SIL): -0.24 | selective drug sensitivity score (KASUMI-2): -0.74 | selective drug sensitivity score 697: 0.06 | selective drug sensitivity score 380: 11.7 | selective drug sensitivity score (MOLT-4): -5.34 | selective drug sensitivity score (TANOUE): -5.34

C#Cc1cccc(Nc2ncnc3cc(OCCOC)c(OCCOC)cc23)c1 [Erlotinib] (top concentration 10000 nM)
selective drug sensitivity score (SUP-B15): 8.96 | selective drug sensitivity score (COG-LL-317): 0.16 | selective drug sensitivity score (NALM-16): -1.24 | selective drug sensitivity score (JURKAT): 2.26 | selective drug sensitivity score (MHH-CALL-4): -1.24 | selective drug sensitivity score (MHH-CALL-3): 1.66 | selective drug sensitivity score (DND-41): -1.24 | selective drug sensitivity score (CCRF-HSB2): 4.66 | selective drug sensitivity score (KARPAS-45): 2.86 | selective drug sensitivity score (COG-LL-355h): 3.46 | selective drug sensitivity score (MN-60): 0.96 | selective drug sensitivity score (HPB-ALL): 0.66 | selective drug sensitivity score (COG-LL-319h): 16.2 | selective drug sensitivity score (COG-LL-402h): 4.06 | selective drug sensitivity score (ALL-SIL): 5.36 | selective drug sensitivity score (KASUMI-2): 3.96 | selective drug sensitivity score 697: 5.86 | selective drug sensitivity score 380: 2.36 | selective drug sensitivity score (MOLT-4): 1.56 | selective drug sensitivity score (TANOUE): -1.24

NC1(C(=O)N[C@@H](CCO)c2ccc(Cl)cc2)CCN(c2ncnc3[nH]ccc23)CC1 [AZD-5363] (top concentration 10000 nM)
selective drug sensitivity score (SUP-B15): 0.42 | selective drug sensitivity score (COG-LL-317): 8.82 | selective drug sensitivity score (NALM-16): 0.12 | selective drug sensitivity score (JURKAT): 6.72 | selective drug sensitivity score (MHH-CALL-4): 5.52 | selective drug sensitivity score (MHH-CALL-3): 6.72 | selective drug sensitivity score (DND-41): -1.88 | selective drug sensitivity score (CCRF-HSB2): 4.02 | selective drug sensitivity score (KARPAS-45): 5.82 | selective drug sensitivity score (COG-LL-355h): 5.92 | selective drug sensitivity score (MN-60): 0.12 | selective drug sensitivity score (HPB-ALL): 1.82 | selective drug sensitivity score (COG-LL-319h): 4.72 | selective drug sensitivity score (COG-LL-402h): 5.62 | selective drug sensitivity score (ALL-SIL): 3.52 | selective drug sensitivity score (KASUMI-2): 7.32 | selective drug sensitivity score 697: 5.32 | selective drug sensitivity score 380: 8.82 | selective drug sensitivity score (MOLT-4): 7.42 | selective drug sensitivity score (TANOUE): -2.88

Cn1cnc2c(F)c(Nc3ccc(Br)cc3Cl)c(C(=O)NOCCO)cc21 [Selumetinib] (top concentration 10000 nM)
selective drug sensitivity score (SUP-B15): 5.4 | selective drug sensitivity score (COG-LL-317): -3.5 | selective drug sensitivity score (NALM-16): -1.3 | selective drug sensitivity score (JURKAT): -3.5 | selective drug sensitivity score (MHH-CALL-4): 4.2 | selective drug sensitivity score (MHH-CALL-3): 15.4 | selective drug sensitivity score (DND-41): 0.4 | selective drug sensitivity score (CCRF-HSB2): 0.8 | selective drug sensitivity score (KARPAS-45): -3.8 | selective drug sensitivity score (COG-LL-355h): 4.7 | selective drug sensitivity score (MN-60): -4.1 | selective drug sensitivity score (HPB-ALL): -4.1 | selective drug sensitivity score (COG-LL-319h): -1.8 | selective drug sensitivity score (COG-LL-402h): -2.3 | selective drug sensitivity score (ALL-SIL): -4.1 | selective drug sensitivity score (KASUMI-2): 7.5 | selective drug sensitivity score 697: -1 | selective drug sensitivity score 380: 9.6 | selective drug sensitivity score (MOLT-4): -3.7 | selective drug sensitivity score (TANOUE): -4.1

CO[C@H]1C[C@@H]2CC[C@@H](C)[C@@](O)(O2)C(=O)C(=O)N2CCCC[C@H]2C(=O)O[C@H]([C@H](C)C[C@@H]2CC[C@@H](O)[C@H](OC)C2)CC(=O)[C@H](C)/C=C(\C)[C@@H](O)[C@@H](OC)C(=O)[C@H](C)C[C@H](C)/C=C/C=C/C=C/1C [Sirolimus] (top concentration 100 nM)
selective drug sensitivity score (SUP-B15): 5.04 | selective drug sensitivity score (COG-LL-317): 0.74 | selective drug sensitivity score (NALM-16): -2.26 | selective drug sensitivity score (JURKAT): -1.96 | selective drug sensitivity score (MHH-CALL-4): -0.76 | selective drug sensitivity score (MHH-CALL-3): 5.74 | selective drug sensitivity score (DND-41): -0.16 | selective drug sensitivity score (CCRF-HSB2): 3.14 | selective drug sensitivity score (KARPAS-45): -0.16 | selective drug sensitivity score (COG-LL-355h): -0.66 | selective drug sensitivity score (MN-60): 0.44 | selective drug sensitivity score (HPB-ALL): -2.46 | selective drug sensitivity score (COG-LL-319h): 5.94 | selective drug sensitivity score (COG-LL-402h): 0.04 | selective drug sensitivity score (ALL-SIL): -0.86 | selective drug sensitivity score (KASUMI-2): 2.84 | selective drug sensitivity score 697: 6.34 | selective drug sensitivity score 380: 17.4 | selective drug sensitivity score (MOLT-4): -2.46 | selective drug sensitivity score (TANOUE): -3.76

CCn1c(-c2nonc2N)nc2c(C#CC(C)(C)O)ncc(OC[C@H]3CCCNC3)c21 (top concentration 10000 nM)
selective drug sensitivity score (SUP-B15): -0.32 | selective drug sensitivity score (COG-LL-317): 14.8 | selective drug sensitivity score (NALM-16): 2.68 | selective drug sensitivity score (JURKAT): 7.48 | selective drug sensitivity score (MHH-CALL-4): 2.98 | selective drug sensitivity score (MHH-CALL-3): 3.38 | selective drug sensitivity score (DND-41): -1.12 | selective drug sensitivity score (CCRF-HSB2): 0.88 | selective drug sensitivity score (KARPAS-45): 6.28 | selective drug sensitivity score (COG-LL-355h): 8.98 | selective drug sensitivity score (MN-60): 0.08 | selective drug sensitivity score (HPB-ALL): 3.98 | selective drug sensitivity score (COG-LL-319h): 7.38 | selective drug sensitivity score (COG-LL-402h): 8.28 | selective drug sensitivity score (ALL-SIL): 6.68 | selective drug sensitivity score (KASUMI-2): 6.38 | selective drug sensitivity score 697: 8.28 | selective drug sensitivity score 380: 8.58 | selective drug sensitivity score (MOLT-4): 8.68 | selective drug sensitivity score (TANOUE): -1.12

NC(=O)/C(=C/n1cnc(-c2cc(C(F)(F)F)cc(C(F)(F)F)c2)n1)c1cncnc1 [Eltanexor] (top concentration 10000 nM)
selective drug sensitivity score (SUP-B15): 13.7 | selective drug sensitivity score (COG-LL-317): 14.7 | selective drug sensitivity score (NALM-16): -0.84 | selective drug sensitivity score (JURKAT): 9.76 | selective drug sensitivity score (MHH-CALL-4): 6.76 | selective drug sensitivity score (MHH-CALL-3): 22.3 | selective drug sensitivity score (DND-41): 12.6 | selective drug sensitivity score (CCRF-HSB2): 12 | selective drug sensitivity score (KARPAS-45): 8.96 | selective drug sensitivity score (COG-LL-355h): 14.5 | selective drug sensitivity score (MN-60): 0.06 | selective drug sensitivity score (HPB-ALL): 5.86 | selective drug sensitivity score (COG-LL-319h): 8.46 | selective drug sensitivity score (COG-LL-402h): 12.1 | selective drug sensitivity score (ALL-SIL): 10.3 | selective drug sensitivity score (KASUMI-2): 16.8 | selective drug sensitivity score 697: 13.2 | selective drug sensitivity score 380: 13.6 | selective drug sensitivity score (MOLT-4): 11.4 | selective drug sensitivity score (TANOUE): -11.8

Cc1nc(NC(=O)N2CCC[C@H]2C(N)=O)sc1-c1ccnc(C(C)(C)C(F)(F)F)c1 [Alpelisib] (top concentration 2500 nM)
selective drug sensitivity score (SUP-B15): -0.82 | selective drug sensitivity score (COG-LL-317): -0.42 | selective drug sensitivity score (NALM-16): 1.38 | selective drug sensitivity score (JURKAT): -0.82 | selective drug sensitivity score (MHH-CALL-4): -0.22 | selective drug sensitivity score (MHH-CALL-3): -0.82 | selective drug sensitivity score (DND-41): -0.82 | selective drug sensitivity score (CCRF-HSB2): 1.68 | selective drug sensitivity score (KARPAS-45): 0.38 | selective drug sensitivity score (COG-LL-355h): 5.98 | selective drug sensitivity score (MN-60): 1.18 | selective drug sensitivity score (HPB-ALL): 2.88 | selective drug sensitivity score (COG-LL-319h): 12.5 | selective drug sensitivity score (COG-LL-402h): 4.18 | selective drug sensitivity score (ALL-SIL): 6.28 | selective drug sensitivity score (KASUMI-2): 1.98 | selective drug sensitivity score 697: 1.08 | selective drug sensitivity score 380: 3.18 | selective drug sensitivity score (MOLT-4): 0.88 | selective drug sensitivity score (TANOUE): -0.82

C[C@@H]1COC(Nc2ccc3ncnc(Nc4ccc(OCc5nccs5)c(Cl)c4)c3c2)=N1 [Varlitinib] (top concentration 10000 nM)
selective drug sensitivity score (SUP-B15): 6.82 | selective drug sensitivity score (COG-LL-317): -0.18 | selective drug sensitivity score (NALM-16): 0.92 | selective drug sensitivity score (JURKAT): -0.18 | selective drug sensitivity score (MHH-CALL-4): 0.82 | selective drug sensitivity score (MHH-CALL-3): -0.18 | selective drug sensitivity score (DND-41): -0.18 | selective drug sensitivity score (CCRF-HSB2): 0.12 | selective drug sensitivity score (KARPAS-45): -0.18 | selective drug sensitivity score (COG-LL-355h): 0.92 | selective drug sensitivity score (MN-60): 0.02 | selective drug sensitivity score (HPB-ALL): 1.92 | selective drug sensitivity score (COG-LL-319h): 18.8 | selective drug sensitivity score (COG-LL-402h): -0.18 | selective drug sensitivity score (ALL-SIL): 2.92 | selective drug sensitivity score (KASUMI-2): -0.18 | selective drug sensitivity score 697: 3.82 | selective drug sensitivity score 380: 18.5 | selective drug sensitivity score (MOLT-4): -0.18 | selective drug sensitivity score (TANOUE): -0.18
